Results as given in patent publication EP0012051A1, “3-Amino-2,4-dioxo-(1H,3H)-quinazolines, process for their preparation and therapeutic composition containing them” (Société dite: BERRI-BALZAC, priority 1978, dated 1980).

Tests used:
Format in all cases: in vivo
rats mâles = experiment: Diuretic action with water overload in the rat (modified Lipschitz technique, oral); conditions: for K = nbre de meq/L pour 100 g d'animal / Na = nbre de meq/L pour 100 g d'animal / dV = pourcentage du volume d'urine émise par rapport au lot témoin et ramené à 100 g de poids corporel: rat, oral, surcharge hydrique; for K = nbre de meq/L pour 100 g d'animal / Na = nbre de meq/L pour 100 g d'animal: 6 h urine; for dV = pourcentage du volume d'urine émise par rapport au lot témoin et ramené à 100 g de poids corporel: 6 h; for diurèse: summary in words of tableaux I à III
Source text: (§1) L'étude de l'activité diurétique a été effectuée comme suit : • l'expérience a été réalisée en utilisant la technique de LIPSCHITZ & Coll. (J. Pharm. Exp. Ther. 1943, 79, p. 97) modifiée pour la circonstance.
(§2) Des lots de 6 rats mâles, pesant environ 150 g, mis à jeun et privés de boisson la veille de l'essai, ont été placés par deux dans des cages à métabolisme pour une durée de 6 heures.
Les produits à essayer ont été administrés par voie orale, à la sonde, en même temps qu'une surcharge hydrique (eau du robinet à 37 °C), à raison de 5 ml pour 100 g de poids corporel.
(§3) Les volumes urinaires ont été recueillis et mesurés toutes les heures, et la quantité d'urine excrétée est donnée en ml par heure et par rat.
(§4) Les dosages du chlore, du sodium et du potassium sont effectués sur les prélèvements de 6 heures et sont exprimés en Meq par litre d'urine et par 100 g de rat.
(§5) A partir de ces chiffres et par rapport aux témoins, des pourcentages d'augmentation ou de diminution de la diurèse ont pu être calculés.
L'excrétion urinaire est donnée par le rapport : [formula]
L'activité diurétique est obtenue en faisant le rapport : • E.U. traités • E.U. témoins
Dans le tableau I figure l'action diurétique avec surcharge hydrique pour les composés A, B et C, et pour le furosémide et l'hydrochlorothiazide.

RAT = experiment: Diuretic action with water-and-sodium overload in the rat; conditions: for fuite de potassium: rat
Source text: as §1, §2, §3, §4, §5
Dans le tableau II figure l'action diurétique avec surcharge hydrosodée pour le composé A et le furosémide.

chien Beagle = experiment: Diuresis in the Beagle dog after injection, urine output over one hour; conditions: for Emission d'urine en ml TOTAL: TOTAL (60 mn)
[1] = 2 mg/kg, une heure, versus témoin

CN(C)n1c(=O)[nH]c2cc(Cl)c(S(N)(=O)=O)cc2c1=O [Composé A, Chloro-7 diméthylamino-3 dioxo-2,4 (1H,3H) sulfonamido-6 quinazoline]
K = nbre de meq/L pour 100 g d'animal (rats mâles; dose 0,1 mg/kg): +19 meq/L pour 100 g d'animal
K = nbre de meq/L pour 100 g d'animal (rats mâles; dose 1 mg/kg): +18 meq/L pour 100 g d'animal
Na = nbre de meq/L pour 100 g d'animal (rats mâles; dose 1 mg/kg): +139,4 meq/L pour 100 g d'animal
dV = pourcentage du volume d'urine émise par rapport au lot témoin et ramené à 100 g de poids corporel (rats mâles; dose 10 mg/kg): +38,3%
K = nbre de meq/L pour 100 g d'animal (rats mâles; dose 10 mg/kg): +71 meq/L pour 100 g d'animal
Na = nbre de meq/L pour 100 g d'animal (rats mâles; dose 10 mg/kg): +551 meq/L pour 100 g d'animal
dV = pourcentage du volume d'urine émise par rapport au lot témoin et ramené à 100 g de poids corporel (rats mâles; dose 25 mg/kg): +39,7%
K = nbre de meq/L pour 100 g d'animal (rats mâles; dose 25 mg/kg): +67 meq/L pour 100 g d'animal
Na = nbre de meq/L pour 100 g d'animal (rats mâles; dose 25 mg/kg): +672 meq/L pour 100 g d'animal
dV = pourcentage du volume d'urine émise par rapport au lot témoin et ramené à 100 g de poids corporel (rats mâles; dose 50 mg/kg): +23,6%
K = nbre de meq/L pour 100 g d'animal (rats mâles; dose 50 mg/kg): +90 meq/L pour 100 g d'animal
Na = nbre de meq/L pour 100 g d'animal (rats mâles; dose 50 mg/kg): +606 meq/L pour 100 g d'animal
diurèse (rats mâles): augmentent la diurèse
action diurétique par rapport au furosémide (RAT; 10 mg/kg composé A sensiblement égale à 25 mg/kg de furosémide): sensiblement double
fuite de potassium (RAT; dose 10 mg/kg (doses équivalentes)): 19%
sodium éliminé dans le volume d'urine émis (chien Beagle; 2 mg/kg, une heure): ~10 fois celui du témoin
la diurèse est multipliée par (chien Beagle; [1]): 600/100
taux de potassium multiplié par (chien Beagle; [1]): 1,2
Emission d'urine en ml 0,5 mn (chien Beagle; Dose I.V. 1 mg/kg, 0,5 mn): 3,5 ml
Emission d'urine en ml 5-10 mn (chien Beagle; Dose I.V. 1 mg/kg): 5,0 ml
Emission d'urine en ml - 20 mn (chien Beagle; Dose I.V. 1 mg/kg): 8,5 ml
Emission d'urine en ml - 30 mn (chien Beagle; Dose I.V. 1 mg/kg): 7,0 ml
Emission d'urine en ml - 40 mn (chien Beagle; Dose I.V. 1 mg/kg): 9,0 ml
Emission d'urine en ml - 50 mn (chien Beagle; Dose I.V. 1 mg/kg): 8,0 ml
Emission d'urine en ml - 60mn (chien Beagle; Dose I.V. 1 mg/kg): 9,0 ml
Emission d'urine en ml TOTAL (chien Beagle; Dose I.V. 1 mg/kg): 50,0 ml
Emission d'urine en ml 0,5 mn (chien Beagle; Dose I.V. 2 mg/kg, 0,5 mn): 8,0 ml
Emission d'urine en ml 5-10 mn (chien Beagle; Dose I.V. 2 mg/kg): 14,5 ml
Emission d'urine en ml - 20 mn (chien Beagle; Dose I.V. 2 mg/kg): 20,5 ml
Emission d'urine en ml - 30 mn (chien Beagle; Dose I.V. 2 mg/kg): 18,5 ml
Emission d'urine en ml - 40 mn (chien Beagle; Dose I.V. 2 mg/kg): 15,5 ml
Emission d'urine en ml - 50 mn (chien Beagle; Dose I.V. 2 mg/kg): 11,5 ml
Emission d'urine en ml - 60mn (chien Beagle; Dose I.V. 2 mg/kg): 8,5 ml
Emission d'urine en ml TOTAL (chien Beagle; Dose I.V. 2 mg/kg): 97,0 ml
Emission d'urine en ml 0,5 mn (chien Beagle; Dose I.V. 5 mg/kg, 0,5 mn): 9,5 ml
Emission d'urine en ml 5-10 mn (chien Beagle; Dose I.V. 5 mg/kg): 10,5 ml
Emission d'urine en ml - 20 mn (chien Beagle; Dose I.V. 5 mg/kg): 10,0 ml
Emission d'urine en ml - 30 mn (chien Beagle; Dose I.V. 5 mg/kg): 8,0 ml
Emission d'urine en ml - 40 mn (chien Beagle; Dose I.V. 5 mg/kg): 9,0 ml
Emission d'urine en ml - 50 mn (chien Beagle; Dose I.V. 5 mg/kg): 5,5 ml
Emission d'urine en ml - 60mn (chien Beagle; Dose I.V. 5 mg/kg): 7,0 ml
Emission d'urine en ml TOTAL (chien Beagle; Dose I.V. 5 mg/kg): 59,5 ml
Emission d'urine en ml 0,5 mn (chien Beagle; Dose I.V. 10 mg/kg, 0,5 mn): 4,0 ml
Emission d'urine en ml 5-10 mn (chien Beagle; Dose I.V. 10 mg/kg): 8,0 ml
Emission d'urine en ml - 20 mn (chien Beagle; Dose I.V. 10 mg/kg): 9,0 ml
Emission d'urine en ml - 30 mn (chien Beagle; Dose I.V. 10 mg/kg): 10,0 ml
Emission d'urine en ml - 40 mn (chien Beagle; Dose I.V. 10 mg/kg): 4,0 ml
Emission d'urine en ml - 50 mn (chien Beagle; Dose I.V. 10 mg/kg): 8,0 ml
Emission d'urine en ml - 60mn (chien Beagle; Dose I.V. 10 mg/kg): 7,5 ml
Emission d'urine en ml TOTAL (chien Beagle; Dose I.V. 10 mg/kg): 50,5 ml
dose avec laquelle la diurèse maximale au bout d'une heure est atteinte (chien Beagle; voie I.P., une heure): 2 mg/kg

CCN(CC)n1c(=O)[nH]c2cc(Cl)c(S(N)(=O)=O)cc2c1=O [Composé B, Chloro-7 diéthylamino-3 dioxo-2,4 (1H,3H) sulfonamido-6 quinazoline]
K = nbre de meq/L pour 100 g d'animal (rats mâles; dose 1 mg/kg): +15 meq/L pour 100 g d'animal
Na = nbre de meq/L pour 100 g d'animal (rats mâles; dose 1 mg/kg): +160 meq/L pour 100 g d'animal
dV = pourcentage du volume d'urine émise par rapport au lot témoin et ramené à 100 g de poids corporel (rats mâles; dose 10 mg/kg): +30%
K = nbre de meq/L pour 100 g d'animal (rats mâles; dose 10 mg/kg): +35 meq/L pour 100 g d'animal
Na = nbre de meq/L pour 100 g d'animal (rats mâles; dose 10 mg/kg): +582 meq/L pour 100 g d'animal
dV = pourcentage du volume d'urine émise par rapport au lot témoin et ramené à 100 g de poids corporel (rats mâles; dose 25 mg/kg): +35%
K = nbre de meq/L pour 100 g d'animal (rats mâles; dose 25 mg/kg): +33 meq/L pour 100 g d'animal
Na = nbre de meq/L pour 100 g d'animal (rats mâles; dose 25 mg/kg): +671 meq/L pour 100 g d'animal
dV = pourcentage du volume d'urine émise par rapport au lot témoin et ramené à 100 g de poids corporel (rats mâles; dose 50 mg/kg): +31%
K = nbre de meq/L pour 100 g d'animal (rats mâles; dose 50 mg/kg): +21 meq/L pour 100 g d'animal
Na = nbre de meq/L pour 100 g d'animal (rats mâles; dose 50 mg/kg): +550 meq/L pour 100 g d'animal
diurèse (rats mâles): augmentent la diurèse

NS(=O)(=O)c1cc2c(=O)n(N3CCCCC3)c(=O)[nH]c2cc1Cl [Composé C, Chloro-7 pipéridino-3 dioxo-2,4 (1H,3H) sulfonamido-6 quinazoline]
K = nbre de meq/L pour 100 g d'animal (rats mâles; dose 0,1 mg/kg): +15 meq/L pour 100 g d'animal
dV = pourcentage du volume d'urine émise par rapport au lot témoin et ramené à 100 g de poids corporel (rats mâles; dose 1 mg/kg): +15%
K = nbre de meq/L pour 100 g d'animal (rats mâles; dose 1 mg/kg): +17 meq/L pour 100 g d'animal
Na = nbre de meq/L pour 100 g d'animal (rats mâles; dose 1 mg/kg): +141 meq/L pour 100 g d'animal
dV = pourcentage du volume d'urine émise par rapport au lot témoin et ramené à 100 g de poids corporel (rats mâles; dose 10 mg/kg): +35%
K = nbre de meq/L pour 100 g d'animal (rats mâles; dose 10 mg/kg): +47 meq/L pour 100 g d'animal
Na = nbre de meq/L pour 100 g d'animal (rats mâles; dose 10 mg/kg): +513 meq/L pour 100 g d'animal
dV = pourcentage du volume d'urine émise par rapport au lot témoin et ramené à 100 g de poids corporel (rats mâles; dose 25 mg/kg): +31%
K = nbre de meq/L pour 100 g d'animal (rats mâles; dose 25 mg/kg): +42 meq/L pour 100 g d'animal
Na = nbre de meq/L pour 100 g d'animal (rats mâles; dose 25 mg/kg): +583 meq/L pour 100 g d'animal
dV = pourcentage du volume d'urine émise par rapport au lot témoin et ramené à 100 g de poids corporel (rats mâles; dose 50 mg/kg): +18%
K = nbre de meq/L pour 100 g d'animal (rats mâles; dose 50 mg/kg): +57 meq/L pour 100 g d'animal
Na = nbre de meq/L pour 100 g d'animal (rats mâles; dose 50 mg/kg): +531 meq/L pour 100 g d'animal
diurèse (rats mâles): augmentent la diurèse

NS(=O)(=O)c1cc(C(=O)O)c(NCc2ccco2)cc1Cl [Furosémide, acide chloro-4 furfurylamino-2 sulfamoyl-5 benzoïque, reference compound]
K = nbre de meq/L pour 100 g d'animal (rats mâles; dose 10 mg/kg): -19 meq/L pour 100 g d'animal
dV = pourcentage du volume d'urine émise par rapport au lot témoin et ramené à 100 g de poids corporel (rats mâles; dose 25 mg/kg): +18%
dV = pourcentage du volume d'urine émise par rapport au lot témoin et ramené à 100 g de poids corporel (rats mâles; dose 50 mg/kg): +76%
K = nbre de meq/L pour 100 g d'animal (rats mâles; dose 50 mg/kg): +84 meq/L pour 100 g d'animal
Na = nbre de meq/L pour 100 g d'animal (rats mâles; dose 50 mg/kg): +639 meq/L pour 100 g d'animal
diurèse (rats mâles): augmentent la diurèse
fuite de potassium (RAT; dose 25 mg/kg (doses équivalentes)): 30,3%

NS(=O)(=O)c1cc2c(cc1Cl)NCNS2(=O)=O [Hydrochloro-thiazide, dioxo-1,1 chloro-6 dihydro-3,4 sulfamoyl-7 (1,2,4)H benzothiadiazine, reference compound]
Na = nbre de meq/L pour 100 g d'animal (rats mâles; dose 0,1 mg/kg): +6,9 meq/L pour 100 g d'animal
dV = pourcentage du volume d'urine émise par rapport au lot témoin et ramené à 100 g de poids corporel (rats mâles; dose 1 mg/kg): +38%
K = nbre de meq/L pour 100 g d'animal (rats mâles; dose 1 mg/kg): +29 meq/L pour 100 g d'animal
Na = nbre de meq/L pour 100 g d'animal (rats mâles; dose 1 mg/kg): +374 meq/L pour 100 g d'animal
dV = pourcentage du volume d'urine émise par rapport au lot témoin et ramené à 100 g de poids corporel (rats mâles; dose 10 mg/kg): +40%
K = nbre de meq/L pour 100 g d'animal (rats mâles; dose 10 mg/kg): +22 meq/L pour 100 g d'animal
Na = nbre de meq/L pour 100 g d'animal (rats mâles; dose 10 mg/kg): +430 meq/L pour 100 g d'animal
dV = pourcentage du volume d'urine émise par rapport au lot témoin et ramené à 100 g de poids corporel (rats mâles; dose 25 mg/kg): +48%
K = nbre de meq/L pour 100 g d'animal (rats mâles; dose 25 mg/kg): +44 meq/L pour 100 g d'animal
Na = nbre de meq/L pour 100 g d'animal (rats mâles; dose 25 mg/kg): +504 meq/L pour 100 g d'animal
diurèse (rats mâles): augmentent la diurèse
